{"source": "patent US10913727B2", "about": "“Modulators of the integrated stress pathway” (Calico Life Sciences LLC, priority 2016, dated 2021)", "system": "HEK293T cells carrying the ATF4 luciferase reporter", "assay": "ATF4-Luc assay, in vitro model of Vanishing Cell White Matter Disease (VWMD)", "format": "cell-based", "settings": "Homo sapiens, HEK-293T, 1 μg/mL tunicamycin, 7 hours, One Glo luminescence", "how_it_was_run": "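Reporter cells were stably generated by retroviral transduction and puromycin selection, then seeded at 30,000 cells/well. Next day, cells received 1 μg/mL tunicamycin with 200 nM test compound for 7 h, and luciferase luminescence was read with a one-step reagent. Values reported as EC50.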"}
{"smiles": "O=C(COc1ccc(Cl)c(F)c1)NC12CC(Nc3nccn4ncnc34)(C1)C2", "note": "[Compound 448, 2-(4-chloro-3-fluorophenoxy)-N-{3-[([1,2,4]triazolo[1,5-a]pyrazin-8-yl)amino]bicyclo[1.1.1]pentan-1-yl}acetamide]", "values": [{"measurement": "EC50", "result": "1000 to 2000", "unit": "nM"}]}
{"smiles": "Cn1nc(C(F)F)cc1C(=O)NC12CC(NC(=O)COc3ccc(Cl)c(F)c3)(C1)C2", "note": "[Compound 365, N-{3-[2-(4-chloro-3-fluorophenoxy)acetamido]bicyclo[1.1.1]pentan-1-yl}-3-(difluoromethyl)-1-methyl-1H-pyrazole-5-carboxamide]", "values": [{"measurement": "EC50", "result": "< 50", "unit": "nM"}]}
{"smiles": "O=C(COc1ccc(Cl)c(F)c1)NC12CCC(NC(=O)c3cc(CO)ccn3)(CC1)C[C@@H]2O", "note": "[Compound 680, N-{(3S)-4-[2-(4-chloro-3-fluorophenoxy)acetamido]-3-hydroxybicyclo[2.2.2]octan-1-yl}-4-(hydroxymethyl)pyridine-2-carboxamide]", "values": [{"measurement": "EC50", "result": "< 50", "unit": "nM"}]}
{"smiles": "O=C(COc1ccc(Cl)c(F)c1)NC12CC(NC(=O)c3cncs3)(C1)C2", "note": "[Compound 309, N-{3-[2-(4-chloro-3-fluorophenoxy)acetamido]bicyclo[1.1.1]pentan-1-yl}-1,3-thiazole-5-carboxamide]", "values": [{"measurement": "EC50", "result": "250 to 1000", "unit": "nM"}]}
{"smiles": "CC(C)c1nnsc1C(=O)NC12CC(NC(=O)COc3ccc(Cl)c(F)c3)(C1)C2", "note": "[Compound 893, N-{3-[2-(4-chloro-3-fluorophenoxy)acetamido]bicyclo[1.1.1]pentan-1-yl}-4-(propan-2-yl)-1,2,3-thiadiazole-5-carboxamide]", "values": [{"measurement": "EC50", "result": "1000 to 2000", "unit": "nM"}]}
{"smiles": "NS(=O)(=O)c1ccc(C(=O)NC23CC(NC(=O)COc4ccc(Cl)c(F)c4)(C2)C3)o1", "note": "[Compound 905, N-{3-[2-(4-chloro-3-fluorophenoxy)acetamido]bicyclo[1.1.1]pentan-1-yl}-5-sulfamoylfuran-2-carboxamide]", "values": [{"measurement": "EC50", "result": "> 2000", "unit": "nM"}]}
{"smiles": "CC(C)c1cc(C(=O)NC23CC(NC(=O)COc4ccc(Cl)c(F)c4)(C2)C3)n(C)n1", "note": "[Compound 364, N-{3-[2-(4-chloro-3-fluorophenoxy)acetamido]bicyclo[1.1.1]pentan-1-yl}-1-methyl-3-(propan-2-yl)-1H-pyrazole-5-carboxamide]", "values": [{"measurement": "EC50", "result": "50 to 250", "unit": "nM"}]}
{"smiles": "COCc1nc(C(=O)NC23CCC(NC(=O)COc4ccc(Cl)c(F)c4)(CC2)C(O)C3)cs1", "note": "(stereo not drawn) [Compound 523, N-{4-[2-(4-chloro-3-fluorophenoxy)acetamido]-3-hydroxybicyclo[2.2.2]octan-1-yl}-2-(methoxymethyl)-1,3-thiazole-4-carboxamide]", "values": [{"measurement": "EC50", "result": "50 to 250", "unit": "nM"}]}
{"smiles": "COc1nccnc1C(=O)NC12CCC(NC(=O)COc3ccc(Cl)c(F)c3)(CC1)C(O)C2", "note": "(stereo not drawn) [Compound 274, N-{4-[2-(4-chloro-3-fluorophenoxy)acetamido]-3-hydroxybicyclo[2.2.2]octan-1-yl}-3-methoxypyrazine-2-carboxamide]", "values": [{"measurement": "EC50", "result": "250 to 1000", "unit": "nM"}]}
{"smiles": "CC(C)c1nc(C(=O)NC23CC(NC(=O)COc4ccc(Cl)c(F)c4)(C2)C3)co1", "note": "[Compound 245, N-{3-[2-(4-chloro-3-fluorophenoxy)acetamido]bicyclo[1.1.1]pentan-1-yl}-2-(propan-2-yl)-1,3-oxazole-4-carboxamide]", "values": [{"measurement": "EC50", "result": "250 to 1000", "unit": "nM"}]}
{"smiles": "NCc1ccnc(C(=O)NC23CC(NC(=O)COc4ccc(Cl)c(Cl)c4)(C2)C3)c1", "note": "[Compound 615, 4-(aminomethyl)-N-{3-[2-(3,4-dichlorophenoxy)acetamido]bicyclo[1.1.1]pentan-1-yl}pyridine-2-carboxamide]", "values": [{"measurement": "EC50", "result": "50 to 250", "unit": "nM"}]}
{"smiles": "O=C(COc1ccc(Cl)c(F)c1)NC12CC(NC(=O)c3cc(C(F)(F)F)ccn3)(C1)C2", "note": "[Compound 176, N-{3-[2-(4-chloro-3-fluorophenoxy)acetamido]bicyclo[1.1.1]pentan-1-yl}-4-(trifluoromethyl)pyridine-2-carboxamide]", "values": [{"measurement": "EC50", "result": "50 to 250", "unit": "nM"}]}
{"smiles": "Cc1nc(C(=O)NC23CCC(NC(=O)COc4ccc(Cl)c(F)c4)(CC2)C(O)C3)n[nH]1", "note": "(stereo not drawn) [Compound 487, N-{4-[2-(4-chloro-3-fluorophenoxy)acetamido]-3-hydroxybicyclo[2.2.2]octan-1-yl}-5-methyl-1H-1,2,4-triazole-3-carboxamide]", "values": [{"measurement": "EC50", "result": "< 50", "unit": "nM"}]}
{"smiles": "CCOC(=O)c1cc(C(=O)NC23CC(NC(=O)COc4ccc(Cl)c(F)c4)(C2)C3)ccn1", "note": "[Compound 279, ethyl 4-({3-[2-(4-chloro-3-fluorophenoxy)acetamido]bicyclo[1.1.1]pentan-1-yl}carbamoyl)pyridine-2-carboxylate]", "values": [{"measurement": "EC50", "result": "250 to 1000", "unit": "nM"}]}
{"smiles": "O=C(COc1ccc(Cl)c(F)c1)NC12CC(Nc3ccnc(N4CCOCC4)n3)(C1)C2", "note": "[Compound 721, 2-(4-chloro-3-fluorophenoxy)-N-(3-{[2-(morpholin-4-yl)pyrimidin-4-yl]amino}bicyclo[1.1.1]pentan-1-yl)acetamide]", "values": [{"measurement": "EC50", "result": "> 2000", "unit": "nM"}]}
{"smiles": "O=C(COc1ccc(Cl)c(F)c1)NC12CC(NC(=O)c3ccoc3)(C1)C2", "note": "[Compound 305, N-{3-[2-(4-chloro-3-fluorophenoxy)acetamido]bicyclo[1.1.1]pentan-1-yl}furan-3-carboxamide]", "values": [{"measurement": "EC50", "result": "250 to 1000", "unit": "nM"}]}
{"smiles": "O=C(COc1ccc(Cl)c(F)c1)NC12CC(NC(=O)c3n[nH]c4ccccc34)(C1)C2", "note": "[Compound 318, N-{3-[2-(4-chloro-3-fluorophenoxy)acetamido]bicyclo[1.1.1]pentan-1-yl}-1H-indazole-3-carboxamide]", "values": [{"measurement": "EC50", "result": "> 2000", "unit": "nM"}]}
{"smiles": "O=C(COc1ccc(Cl)c(F)c1)NC12CC(Nc3nccc(-c4ccc(Cl)cc4)n3)(C1)C2", "note": "[Compound 370, 2-(4-chloro-3-fluorophenoxy)-N-(3-{[4-(4-chlorophenyl)pyrimidin-2-yl]amino}bicyclo[1.1.1]pentan-1-yl)acetamide]", "values": [{"measurement": "EC50", "result": "< 50", "unit": "nM"}]}
{"smiles": "O=C(COc1ccc(Cl)c(F)c1)NC12CCC(NC(=O)c3cnc(C(F)F)cn3)(CC1)C(O)C2", "note": "(stereo not drawn) [Compound 195, N-{4-[2-(4-chloro-3-fluorophenoxy)acetamido]-2-hydroxybicyclo[2.2.2]octan-1-yl}-5-(difluoromethyl)pyrazine-2-carboxamide]", "values": [{"measurement": "EC50", "result": "< 50", "unit": "nM"}]}
{"smiles": "CCCc1cnc(C(=O)NC23CC(NC(=O)COc4ccc(Cl)c(F)c4)(C2)C3)cn1", "note": "[Compound 334, N-{3-[2-(4-chloro-3-fluorophenoxy)acetamido]bicyclo[1.1.1]pentan-1-yl}-5-propylpyrazine-2-carboxamide]", "values": [{"measurement": "EC50", "result": "< 50", "unit": "nM"}]}
{"smiles": "Cn1cc(-c2ccnc(NC34CC(NC(=O)COc5ccc(Cl)c(F)c5)(C3)C4)n2)cn1", "note": "[Compound 381, 2-(4-chloro-3-fluorophenoxy)-N-(3-{[4-(1-methyl-1H-pyrazol-4-yl)pyrimidin-2-yl]amino}bicyclo[1.1.1]pentan-1-yl)acetamide]", "values": [{"measurement": "EC50", "result": "1000 to 2000", "unit": "nM"}]}
{"smiles": "Cc1ccc(C(=O)NC23CCC(NC(=O)COc4ccc(Cl)c(F)c4)(CC2)C[C@@H]3O)nc1", "note": "[Compound 589, N-{(2S)-4-[2-(4-chloro-3-fluorophenoxy)acetamido]-2-hydroxybicyclo[2.2.2]octan-1-yl}-5-methylpyridine-2-carboxamide]", "values": [{"measurement": "EC50", "result": "50 to 250", "unit": "nM"}]}
{"smiles": "O=C(COc1ccc(Cl)c(F)c1)NC12CC(NC(=O)c3cc(C(F)(F)F)no3)(C1)C2", "note": "[Compound 380, N-{3-[2-(4-chloro-3-fluorophenoxy)acetamido]bicyclo[1.1.1]pentan-1-yl}-3-(trifluoromethyl)-1,2-oxazole-5-carboxamide]", "values": [{"measurement": "EC50", "result": "250 to 1000", "unit": "nM"}]}
{"smiles": "O=C(COc1ccc(Cl)c(F)c1)NC12CCC(NC(=O)c3ccn[nH]3)(CC1)C(O)C2", "note": "(stereo not drawn) [Compound 224, N-{4-[2-(4-chloro-3-fluorophenoxy)acetamido]-2-hydroxybicyclo[2.2.2]octan-1-yl}-1H-pyrazole-5-carboxamide]", "values": [{"measurement": "EC50", "result": "250 to 1000", "unit": "nM"}]}
{"smiles": "O=C(COc1ccc(C(F)(F)F)nc1)NC12CC(Nc3ccnc4cc(Cl)ccc34)(C1)C2", "note": "[Compound 385, N-{3-[(7-chloroquinolin-4-yl)amino]bicyclo[1.1.1]pentan-1-yl}-2-{[6-(trifluoromethyl)pyridin-3-yl]oxy}acetamide]", "values": [{"measurement": "EC50", "result": "250 to 1000", "unit": "nM"}]}
{"smiles": "Cn1ccnc1C(=O)NC12CC(NC(=O)COc3ccc(Cl)c(F)c3)(C1)C2", "note": "[Compound 904, N-{3-[2-(4-chloro-3-fluorophenoxy)acetamido]bicyclo[1.1.1]pentan-1-yl}-1-methyl-1H-imidazole-2-carboxamide]", "values": [{"measurement": "EC50", "result": "> 2000", "unit": "nM"}]}
{"smiles": "CCc1ccc(C(=O)NC23CC(NC(=O)COc4ccc(Cl)c(F)c4)(C2)C3)cc1", "note": "[Compound 761, N-{3-[2-(4-chloro-3-fluorophenoxy)acetamido]bicyclo[1.1.1]pentan-1-yl}-4-ethylbenzamide]", "values": [{"measurement": "EC50", "result": "> 2000", "unit": "nM"}]}
{"smiles": "COCCOc1ccc(C(=O)NC23CC(NC(=O)COc4ccc(Cl)c(F)c4)(C2)C3)nc1", "note": "[Compound 299, N-{3-[2-(4-chloro-3-fluorophenoxy)acetamido]bicyclo[1.1.1]pentan-1-yl}-5-(2-methoxyethoxy)pyridine-2-carboxamide]", "values": [{"measurement": "EC50", "result": "250 to 1000", "unit": "nM"}]}
{"smiles": "O=C(COc1ccc(Cl)c(F)c1)NC12CC(NC(=O)c3cn4ccsc4n3)(C1)C2", "note": "[Compound 799, N-{3-[2-(4-chloro-3-fluorophenoxy)acetamido]bicyclo[1.1.1]pentan-1-yl}imidazo[2,1-b][1,3]thiazole-6-carboxamide]", "values": [{"measurement": "EC50", "result": "> 2000", "unit": "nM"}]}
{"smiles": "Cc1cc2c(NC34CC(NC(=O)COc5ccc(F)c(F)c5)(C3)C4)nccn2n1", "note": "[Compound 436, 2-(3,4-difluorophenoxy)-N-{3-[(2-methylpyrazolo[1,5-a]pyrazin-4-yl)amino]bicyclo[1.1.1]pentan-1-yl}acetamide]", "values": [{"measurement": "EC50", "result": "50 to 250", "unit": "nM"}]}
{"smiles": "O=C(COc1ccc(Cl)c(F)c1)NC12CC(NC(=O)c3ccncc3F)(C1)C2", "note": "[Compound 817, N-{3-[2-(4-chloro-3-fluorophenoxy)acetamido]bicyclo[1.1.1]pentan-1-yl}-3-fluoropyridine-4-carboxamide]", "values": [{"measurement": "EC50", "result": "> 2000", "unit": "nM"}]}
{"smiles": "O=C(COc1ccc(Cl)c(Cl)c1)NC12CC(NC(=O)c3ccc(OCCO)nc3)(C1)C2", "note": "[Compound 158, N-{3-[2-(3,4-dichlorophenoxy)acetamido]bicyclo[1.1.1]pentan-1-yl}-6-(2-hydroxyethoxy)pyridine-3-carboxamide]", "values": [{"measurement": "EC50", "result": "250 to 1000", "unit": "nM"}]}
{"smiles": "CC(C)(C)c1cc(C(=O)NC23CCC(NC(=O)COc4ccc(Cl)c(F)c4)(CC2)[C@@H](O)C3)on1", "note": "[Compound 581, 3-tert-butyl-N-{(3S)-4-[2-(4-chloro-3-fluorophenoxy)acetamido]-3-hydroxybicyclo[2.2.2]octan-1-yl}-1,2-oxazole-5-carboxamide]", "values": [{"measurement": "EC50", "result": "< 50", "unit": "nM"}]}
